Results taken from ChEMBL document CHEMBL5113394, “Design and synthesis of harmiquins, harmine and chloroquine hybrids as potent antiplasmodial agents” (Eur J Med Chem, 2022).
pIC50: −log10 of the molar value.

How the values were obtained:
[1] = Cytotoxicity against human HepG2 cells assessed as cell growth inhibition incubated for 1 day by neutral red assay; assay type: toxicity, cell-based
[2] = tested on: Plasmodium falciparum; assay: Antiplasmodial activity against multidrug-resistant Plasmodium falciparum K1 assessed as inhibition of parasite growth incubated for 3 days by HRP2-ELISA; assay type: functional, organism-based; conditions: K1, 72 h
[3] = tested on: Plasmodium falciparum; assay: Antiplasmodial activity against chloroquine-resistant Plasmodium falciparum 7G8 assessed as inhibition of parasite growth incubated for 3 days by HRP2-ELISA; assay type: functional, organism-based; conditions: 7G8, 72 h
[4] = Inhibition of hemin (unknown origin) assessed as inhibition of heme polymerization by measuring reduction in beta-hematin formation at 1 mM measured after 48 hrs by microplate reader assay
[5] = Selectivity index, ratio of IC50 for cytotoxicity against human HepG2 cells to IC50 for antiplasmodial activity against chloroquine-sensitive Plasmodium falciparum 3D7; assay type: toxicity, cell-based; conditions: read-out: Ratio IC50
[6] = tested on: Plasmodium falciparum; assay: Antiplasmodial activity against chloroquine-sensitive Plasmodium falciparum 3D7 assessed as inhibition of parasite growth incubated for 3 days by HRP2-ELISA; assay type: functional, organism-based; conditions: 3D7, 72 h
[7] = tested on: Plasmodium falciparum; assay: Antiplasmodial activity against multidrug-resistant Plasmodium falciparum Dd2 assessed as inhibition of parasite growth incubated for 3 days by HRP2-ELISA; assay type: functional, organism-based; conditions: Dd2, 72 h
[8] = Resistance index, ratio of IC50 for antiplasmodial activity against multidrug-resistant Plasmodium falciparum Dd2 to IC50 for antiplasmodial activity against chloroquine-sensitive Plasmodium falciparum 3D7; assay type: functional
[9] = Resistance index, ratio of IC50 for antiplasmodial activity against multidrug-resistant Plasmodium falciparum K1 to IC50 for antiplasmodial activity against chloroquine-sensitive Plasmodium falciparum 3D7; assay type: functional
[10] = Resistance index, ratio of IC50 for antiplasmodial activity against chloroquine-resistant Plasmodium falciparum 7G8 to IC50 for antiplasmodial activity against chloroquine-sensitive Plasmodium falciparum 3D7; assay type: functional
[11] = tested on: Plasmodium falciparum; assay: Potency index, ratio of chloroquine IC50 to test compound IC50 for antiplasmodial activity against multidrug-resistant Plasmodium falciparum Dd2 assessed as inhibition of parasite growth incubated for 3 days by HRP2-ELISA; assay type: functional; conditions: time 3 day
[12] = tested on: Plasmodium falciparum; assay: Potency index, ratio of chloroquine IC50 to test compound IC50 for antiplasmodial activity against chloroquine-sensitive Plasmodium falciparum 3D7 assessed as inhibition of parasite growth incubated for 3 days by HRP2-ELISA; assay type: functional; conditions: time 3 day
[13] = tested on: Plasmodium falciparum; assay: Potency index, ratio of chloroquine IC50 to test compound IC50 for antiplasmodial activity against multidrug-resistant Plasmodium falciparum K1 assessed as inhibition of parasite growth incubated for 3 days by HRP2-ELISA; assay type: functional; conditions: time 3 day
[14] = tested on: Plasmodium falciparum; assay: Potency index, ratio of chloroquine IC50 to test compound IC50 for antiplasmodial activity against chloroquine-resistant Plasmodium falciparum 7G8 assessed as inhibition of parasite growth incubated for 3 days by HRP2-ELISA; assay type: functional; conditions: time 3 day

COc1ccc2c3ccnc(C)c3n(Cc3cn(CCNc4ccnc5cc(Cl)ccc45)nn3)c2c1
IC50 at 1 day [1]: 14000 nM
pIC50 [2]: 6.79
pIC50 [3]: 7.54
inhibition [4]: 50%
selectivity ratio [5]: 829
pIC50 [6]: 7.94
pIC50 [7]: 6.69

Cc1nccc2c1[nH]c1cc(OCc3cn(CCNc4ccnc5cc(Cl)ccc45)nn3)ccc12
IC50 at 1 day [1]: 6300 nM
pIC50 [2]: 7.47
pIC50 [3]: 7.35
inhibition [4]: > 75%
Ratio IC50 [8]: 1.3
selectivity ratio [5]: 110
Ratio IC50 [9]: 0.5
Ratio IC50 [10]: 0.7
pIC50 [6]: 7.24
pIC50 [7]: 7.12

COc1ccc2c3ccnc(C)c3n(CCC(=O)NCCNc3ccnc4cc(Cl)ccc34)c2c1
IC50 at 1 day [1]: 12800 nM
inhibition [4]: < 50%
selectivity ratio [5]: 795

Cc1nccc2c1[nH]c1ccc(OCc3cn(CCNc4ccnc5cc(Cl)ccc45)nn3)cc12
IC50 at 1 day [1]: 15000 nM
pIC50 [2]: 6.85
pIC50 [3]: 6.84
inhibition [4]: > 75%
Ratio IC50 [8]: 2.4
selectivity ratio [5]: 228
Ratio IC50 [9]: 2.1
Ratio IC50 [10]: 2.1
pIC50 [6]: 7.18
pIC50 [7]: 6.79

COc1ccc2c3ccnc(C)c3n(CCNC(=O)CNc3ccnc4cc(Cl)ccc34)c2c1
Ratio IC50 [11]: 22.5
IC50 at 1 day [1]: 8900 nM
pIC50 [2]: 7.61
pIC50 [3]: 8.13
Ratio IC50 [12]: 5.5
inhibition [4]: 50%
selectivity ratio [5]: 4450
Ratio IC50 [13]: 15.9
Ratio IC50 [14]: 29.8
pIC50 [6]: 8.70
pIC50 [7]: 7.79

O=C(CNc1ccnc2cc(Cl)ccc12)NCc1nccc2c1[nH]c1ccccc12
IC50 at 1 day [1]: 7800 nM
inhibition [4]: < 50%
Ratio IC50 [8]: 3.1
selectivity ratio [5]: 144
pIC50 [6]: 7.27
pIC50 [7]: 6.77

Cc1nc(Cn2cc(COc3ccnc4cc(Cl)ccc34)nn2)cc2c1[nH]c1ccccc12
IC50 at 1 day [1]: > 100000 nM
inhibition [4]: 50%
Ratio IC50 [8]: 0.4
selectivity ratio [5]: > 9.22
pIC50 [6]: 4.96
pIC50 [7]: 5.27

COc1ccc2c(c1)[nH]c1c(C)nccc12 [HARMINE]
IC50 at 1 day [1]: > 250000 nM

COc1ccc2c3ccnc(C)c3n(CCC(=O)NCCCCNc3ccnc4cc(Cl)ccc34)c2c1
IC50 at 1 day [1]: > 25000 nM
inhibition [4]: < 50%
selectivity ratio [5]: > 723

Cc1nccc2c1[nH]c1cc(OCc3cn(-c4ccnc5cc(Cl)ccc45)nn3)ccc12
IC50 at 1 day [1]: 6400 nM
pIC50 [2]: 6.52
pIC50 [3]: 6.71
inhibition [4]: > 75%
Ratio IC50 [8]: 2.1
selectivity ratio [5]: 66.8
Ratio IC50 [9]: 3.1
Ratio IC50 [10]: 2
pIC50 [6]: 7.02
pIC50 [7]: 6.69

Cc1nccc2c1[nH]c1ccc(OCc3cn(-c4ccnc5cc(Cl)ccc45)nn3)cc12
IC50 at 1 day [1]: 5500 nM
inhibition [4]: > 75%
Ratio IC50 [8]: 1.9
selectivity ratio [5]: 1.5
pIC50 [6]: 5.44
pIC50 [7]: 5.15

COc1ccc2c3ccnc(C)c3n(Cc3cn(-c4ccnc5cc(Cl)ccc45)nn3)c2c1
IC50 at 1 day [1]: 19700 nM
inhibition [4]: < 50%
Ratio IC50 [8]: 2
selectivity ratio [5]: 21.9
pIC50 [6]: 6.05
pIC50 [7]: 5.74

Cc1nccc2c1[nH]c1cc(OCCNC(=O)CNc3ccnc4cc(Cl)ccc34)ccc12
IC50 at 1 day [1]: 15900 nM
inhibition [4]: 50%
Ratio IC50 [8]: 1.3
selectivity ratio [5]: 68.1
pIC50 [6]: 6.63
pIC50 [7]: 6.51

Clc1ccc2c(OCc3cn(Cc4nccc5c4[nH]c4ccccc45)nn3)ccnc2c1
IC50 at 1 day [1]: > 25000 nM
inhibition [4]: < 50%
selectivity ratio [5]: > 0.9
pIC50 [6]: < 4.55
pIC50 [7]: < 4.56

Cc1nccc2c1[nH]c1ccc(OCCNC(=O)CNc3ccnc4cc(Cl)ccc34)cc12
IC50 at 1 day [1]: > 20000 nM
inhibition [4]: < 50%
Ratio IC50 [8]: 1.7
selectivity ratio [5]: > 66
pIC50 [6]: 6.52
pIC50 [7]: 6.27

Cc1nc(CNC(=O)CNc2ccnc3cc(Cl)ccc23)cc2c1[nH]c1ccccc12
IC50 at 1 day [1]: 18600 nM
pIC50 [2]: 7.31
pIC50 [3]: 7.55
inhibition [4]: < 50%
Ratio IC50 [8]: 3.5
selectivity ratio [5]: 1430
Ratio IC50 [9]: 3.7
Ratio IC50 [10]: 2.1
pIC50 [6]: 7.89
pIC50 [7]: 7.34

CCN(CC)CCCC(C)Nc1ccnc2cc(Cl)ccc12 (configuration not stated)
inhibition [4]: > 75%
